Experimental data reported in patent US20240091235A1, “USE AS SELECTIVE AGONIST OF MELANOCORTIN-4 RECEPTOR” (priority 2020, published 2024).
Counter-ions that a name gives are not always drawn.

Key:
skin pigmentation = conditions: reported, Clement et al., Nature Medicine, 2018; cited from earlier work
MC1R [1] = target: T1, MC1R (Homo sapiens, UniProt Q01726); assay: Pathhunter eXpress β-arrestin assay (U2OS cell line), MC1R; type: cell-based; design: expressed in transfected cells; host or cells: U2OS (Pathhunter eXpress β-arrestin cell line); conditions: 90 minutes at 37° C.
Excerpt: (§1) A Pathhunter eXpress β-arrestin cell line (U2OS cell line) in which Prolink (PK)-tagged MC1R and MC4R, and enzyme acceptor (EA)-tagged β-arrestin were expressed together was established. When the MCR-PK portion of this cell line is activated, β-arrestin-EA is mobilized, and enzyme acceptor (EA) and Prolink (PK), which are the β-galactosidase enzyme fragments, interact. The activated enzyme hydrolyzes the substrate by β-galactosidase activity to produce a chemiluminescent signal, so that the activity can be measured. After the Pathhunter eXpress β-arrestin cell line (U2OS cell line) was incubated, the cells were inoculated into each well of the cell culture plate and incubated for 48 hours in a 37° C. incubator in the presence of 5% CO2. After the incubation, 5 μL of the sample diluted 5 times with buffer was added, the vehicle concentration was set to 1%, and the MC4R agonist compound diluted at each step concentration was added, followed by reaction at 37° C. for 90 minutes. The activity (%) of each agonist compound is expressed as 100%×(average RLU value of sample−average RLU value of vehicle control)/(average maximum value of control ligand−average RLU value of vehicle control), and the value was analyzed by CBIS data analysis suite (ChemInnovation, CA).
Target sequence in this assay (Q01726 whole entry, the tested form may be a part): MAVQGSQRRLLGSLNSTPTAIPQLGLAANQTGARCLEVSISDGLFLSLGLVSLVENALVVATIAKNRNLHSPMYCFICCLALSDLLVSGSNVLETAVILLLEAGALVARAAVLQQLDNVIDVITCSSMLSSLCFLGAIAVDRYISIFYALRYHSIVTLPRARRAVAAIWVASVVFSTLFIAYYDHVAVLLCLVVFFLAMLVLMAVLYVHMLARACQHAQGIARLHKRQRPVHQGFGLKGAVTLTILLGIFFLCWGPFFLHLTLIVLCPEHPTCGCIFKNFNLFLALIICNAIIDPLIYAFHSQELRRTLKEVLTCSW
Target sequence in this assay (P32121 whole entry partner, the tested form may be a part): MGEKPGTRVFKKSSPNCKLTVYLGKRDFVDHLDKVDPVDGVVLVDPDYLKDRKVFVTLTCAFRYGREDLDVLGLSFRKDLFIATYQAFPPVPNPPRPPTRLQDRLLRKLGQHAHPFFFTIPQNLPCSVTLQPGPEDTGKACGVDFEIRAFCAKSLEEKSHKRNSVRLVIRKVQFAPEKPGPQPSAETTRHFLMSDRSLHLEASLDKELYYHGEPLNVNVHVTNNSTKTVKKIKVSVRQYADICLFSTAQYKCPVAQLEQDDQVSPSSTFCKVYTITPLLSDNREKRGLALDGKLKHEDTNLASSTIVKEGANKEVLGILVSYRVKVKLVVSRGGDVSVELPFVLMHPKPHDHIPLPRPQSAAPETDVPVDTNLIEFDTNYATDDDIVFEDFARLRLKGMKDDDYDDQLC

MC4R [2] = target: T2, MC4R (Homo sapiens, UniProt P32245); assay: Binding affinity, membranes of HEK-293 cell lines expressing MC4R; design: expressed in transfected cells
Protocol: After the CHO-K1 cell line expressing human recombinant MC1R and the HEK-293 cell lines expressing MC4R were established, membranes were collected from each cell line. In a 96-well cell culture plate, the cell line membrane and 25 mM HEPES-KOH adsorption buffer (pH 7.0) containing the MCR agonist diluted at each step concentration were added, and the reaction was carried out. EC50 was calculated as a concentration that induces 50% of the maximum binding that can be induced by each agonist, and the results are represented in Table 2.
Target sequence in this assay (P32245 whole entry): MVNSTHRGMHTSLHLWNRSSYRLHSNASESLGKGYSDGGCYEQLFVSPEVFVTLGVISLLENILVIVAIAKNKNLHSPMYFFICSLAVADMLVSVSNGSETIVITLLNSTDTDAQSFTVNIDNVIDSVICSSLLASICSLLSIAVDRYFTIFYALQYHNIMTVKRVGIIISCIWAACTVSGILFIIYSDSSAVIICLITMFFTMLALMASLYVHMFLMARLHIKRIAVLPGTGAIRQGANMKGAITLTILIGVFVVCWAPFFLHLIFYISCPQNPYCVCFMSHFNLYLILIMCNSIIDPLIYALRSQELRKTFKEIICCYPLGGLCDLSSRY

[3] = target: T3, melanocortin-1 receptor (MC1R) (Homo sapiens, UniProt Q01726); assay: Luciferase assay (CRE-LUC), HEK MC1R-Luc cells; type: cell-based; conditions: luminescence relative to 10 μM NDP-α-MSH
T3 construct: expressed in transfected cells
Protocol: In order to measure the agonist ability for melanocortin-1 receptor (MC1R) and melanocortin-4 receptor (MC4R), a cell line that permanently expresses MC1R, MC4R and the luciferase gene (CRE-LUC) under the control of CRE (cAMP response element) was established.
After a mammalian cell expression vector (pCDNA3 (Neo)) (Invitrogen) containing the MC1R and MC4R genes was prepared, human embryonic kidney (HEK) cell lines were transformed by using Lipofectamine 2000 (Invitrogen) together with a vector (pCRE-Luc)(Stratagen) expressing a luciferase gene (CRE-LUC) under the control of a cAMP response element (CRE). […] Each well was treated with 50 μL of a Bright-Glo luciferase reagent (Promega) and left at room temperature for 15 minutes, and then the luminescence of each well was measured by using a luminometer (Victor).
HEK MC1R-Luc cells and HEK MC4R-Luc cells were added to each well of a 96-well luminometer cell culture plate (Costar) to a size of 2.5×10^4 cells in 100 μL of a culture medium and then incubated in a 37° C. incubator in the presence of 6% CO2 for 18 hours. […] Each well was treated with 50 μL of a Bright-Glo luciferase reagent (Promega) and left at room temperature for five minutes, and then the luminescence of each well was measured by using a luminometer (Victor). […] The measurements were measured using statistical software (Prizm).

MC4R [4] = target: T2, MC4R; assay: cAMP Hunter Gs-coupled cAMP assay (CHO-K1 cell line), MC4R; type: cell-based; design: expressed in transfected cells; host or cells: CHO-K1 (cAMP Hunter Gs-coupled cell line)
Protocol: (§2) After cAMP Hunter Gs-coupled cell lines (CHO-K1 cell line) in which each of MC1R and MC4R was overexpressed were established so that the increase in the cAMP level in cells due to agonist reaction was measurable, the cells were inoculated into each well of a white cell culture plate and incubated for 24 hours in a 37° C. incubator in the presence of 5% CO2. After the incubation, the medium was removed, and 15 μL of a 2:1 HBBS/10 mM HEPES:cAMP XS+Ab reagent was added. After 5 μL of the sample diluted 4 times with buffer was added, the vehicle concentration was set to 1%, and the MC4R agonist compound diluted at each step concentration was added, followed by reaction at 37° C. for 30 minutes. The activity (%) of each agonist compound is expressed as 100%×(average RLU value of sample−average RLU value of vehicle control)/(average RLU value of max control−average RLU value of vehicle control), and the value was analyzed by CBIS data analysis suite (ChemInnovation, CA).
Target sequence in this assay (P32245 whole entry): as above

MC1R [5] = target: T1, MC1R; assay: cAMP Hunter Gs-coupled cAMP assay (CHO-K1 cell line), MC1R; type: cell-based; design: expressed in transfected cells; host or cells: CHO-K1 (cAMP Hunter Gs-coupled cell line); conditions: 30 minutes at 37° C.
Protocol: as §2
Target sequence in this assay (Q01726 whole entry, the tested form may be a part): as the sequence (Q01726 whole entry, the tested form may be a part) above

MC4R [6] = target: T2, MC4R; assay: Pathhunter eXpress β-arrestin assay (U2OS cell line), MC4R; type: cell-based; design: expressed in transfected cells; host or cells: U2OS (Pathhunter eXpress β-arrestin cell line)
Excerpt: as §1
Target sequence in this assay (P32245 whole entry): as the sequence (P32245 whole entry) above
Target sequence in this assay (P32121 whole entry partner): as the sequence (P32121 whole entry partner, the tested form may be a part) above

[7] = target: T4, melanocortin-4 receptor (MC4R) (Homo sapiens, UniProt P32245); assay: Luciferase assay (CRE-LUC), HEK MC4R-Luc cells; type: cell-based
T4 construct: expressed in transfected cells

MC1R [8] = target: T1, MC1R; assay: Binding affinity, membranes of CHO-K1 cell line expressing human recombinant MC1R; design: expressed in transfected cells; host or cells: CHO-K1 (membranes); conditions: 25 mM HEPES-KOH buffer pH 7.0
Protocol: In a 96-well cell culture plate, the cell line membrane and 25 mM HEPES-KOH adsorption buffer (pH 7.0) containing the MCR agonist diluted at each step concentration were added, and the reaction was carried out.
Target sequence in this assay (Q01726 whole entry, the tested form may be a part): as the sequence (Q01726 whole entry, the tested form may be a part) above

[9] = test system: skin and skin hair pigmentation; assay: Skin pigmentation in repeated toxicity test in monkeys; type: in vivo; conditions: repeatedly administered for 2 weeks, FIG. 2
Protocol: In order to confirm the possibility of occurrence of skin pigmentation—which is an off-target effect of MC4R agonist, pigmentation patterns in the skin and skin hair were measured in a repeated toxicity test in monkeys, and the results are represented in FIG. 2.

[10] = mouse, in vivo
Protocol: With respect to skin pigmentation—which is an off-target effect of MC4R agonist, the distribution and accumulation of the drug were evaluated by measuring the drug concentration in the skin and plasma after repeated administration in a db/db mouse model lacking leptin receptor.

[11] = ratio of EC50 in MC1R to EC50 in MC4R

T4 sequence (P32245 whole entry): as the sequence (P32245 whole entry) above
T3 sequence (Q01726 whole entry): as the sequence (Q01726 whole entry, the tested form may be a part) above

SMILES	Skin pigmentation in clinical trials (skin pigmentation)	EC50 (MC1R [1]) [nM]	EC50 (MC4R [2]; HEK-293 membranes, 25 mM HEPES-KOH buffer pH 7.0) [nM]	Ratio MC1R/MC4R (Binding) (MC4R [2]; [11])	EC50 [3] [nM]	EC50 (MC4R [4]; CHO-K1 cell line, 30 minutes at 37° C.) [nM]	Ratio MC1R/MC4R (cAMP) (MC4R [4]; [11])	EC50 (MC1R [5]) [nM]	EC50 (MC4R [6]; U2OS cell line, 90 minutes at 37° C.) [nM]	Ratio MC1R/MC4R (β-Arrestin) (MC4R [6]; [11])	EC50 ([7]; HEK MC4R-Luc cells, luminescence relative to 10 μM NDP-α-MSH) [nM]	Ratio MC1R/MC4R (Luciferase) [7, 11]	EC50 (MC1R [8]) [nM]	Pigmentation on the skin and skin hair [9]	Accumulation of drug in the skin [10]
CC(=O)N[C@@H](CCCNC(=N)N)C(=O)N[C@H]1CSSC[C@@H](C(N)=O)NC(=O)[C@H](Cc2c[nH]c3ccccc23)NC(=O)[C@H](CCCNC(=N)N)NC(=O)[C@@H](Cc2ccccc2)NC(=O)[C@H](Cc2c[nH]cn2)NC(=O)[C@@H](C)NC1=O [setmelanotide, Ac-RC[dA]H[dF]RWC-NH2 (disulfide) (AcOH salt)]	show skin pigmentation	–	–	–	–	–	–	–	–	–	–	–	–	–	–
CC(C)C(=O)N([C@H]1C[C@@H](C(=O)N2CCOCC2)N(C(=O)[C@@H]2CN(C(C)(C)C)C[C@H]2c2ccc(Cl)cc2)C1)[C@H]1CC[C@@H](C)CC1.Cl [Test Compound, N-((3S,5S)-1-((3S,4R)-1-(tert-butyl)-4-(4-chlorophenyl)pyrrolidine-3-carbonyl)-5-(morpholine-4-carbonyl)pyrrolidin-3-yl)-N-((1s,4R)-4-methylcyclohexyl)isobutyramide hydrochloride]	–	195	62	5.00	2.5	16.3	5.21	84.8	5.14	37.98	0.434	5.76	310	pigmentation did not appear on the skin and skin hair	did not relatively accumulate in the skin
